The values below come from ChEMBL document CHEMBL1138535, “Comparison of beta-lactam and macrolide combination therapy versus fluoroquinolone monotherapy in hospitalized Veterans Affairs patients with community-acquired pneumonia” (2007).

Assay type in all cases: functional
The subject of assay [1] is Homo sapiens. As to the kind of experiment: Protection against community-acquired pneumonia in patient with pneumonia severity index-5 assessed as mortality at 500 mg administered once daily for 30 days.
The test system of assay [2] is Homo sapiens. The assay can be described thus: Protection against community-acquired pneumonia in patient with pneumonia severity index-4 assessed as mortality at 500 mg administered once daily for 30 days.
For assay [3], the system named is Homo sapiens. The assay can be described thus: Protection against community-acquired pneumonia in patient with pneumonia severity index-3 assessed as mortality at 500 mg administered once daily for 30 days.
The subject of assay [4] is Homo sapiens. The assay can be described thus: Protection against community-acquired pneumonia in patient with pneumonia severity index-2 assessed as mortality at 500 mg administered once daily for 30 days.
Assay [5] has as its system Homo sapiens. The assay can be described thus: Protection against community-acquired pneumonia in patient with pneumonia severity index-2 assessed as mortality at 500 mg administered once daily for 14 days.
In assay [6] the test system is Homo sapiens. As to the kind of experiment: Protection against community-acquired pneumonia in patient with pneumonia severity index-3 assessed as mortality at 500 mg administered once daily for 14 days.
Assay [7] relates to Homo sapiens. The assay can be described thus: Protection against community-acquired pneumonia in patient with pneumonia severity index-4 assessed as mortality at 500 mg administered once daily for 14 days.
The test system of assay [8] is Homo sapiens. As to the kind of experiment: Protection against community-acquired pneumonia in patient with pneumonia severity index-5 assessed as mortality at 500 mg administered once daily for 14 days.

Turning to `C[C@H]1COc2c(N3CCN(C)CC3)c(F)cc3c(=O)c(C(=O)O)cn1c23.C[C@H]1COc2c(N3CCN(C)CC3)c(F)cc3c(=O)c(C(=O)O)cn1c23.O` [LEVOFLOXACIN], the Activity is on record as 36.6% with Homo sapiens [1]; 5% in the assay with Homo sapiens [2]; 6.3% in the assay on Homo sapiens [3]; 0% in the assay on Homo sapiens [4]; 0% in the assay on Homo sapiens [5]; 2.1% with Homo sapiens [6]. Also, the Activity with Homo sapiens [7] came out at 4.2%; in the assay on Homo sapiens [8], 26.8%.
